# Results as given in ChEMBL document CHEMBL4229381, “New cytokinin derivatives possess UVA and UVB photoprotective effect on human skin cells and prevent oxidative stress” (Eur J Med Chem, 2018).
# Active and inactive are the calls of the source. No cut-off for these calls is given here.
# Columns and labels:
# [1] = system: HaCaT; assay: Cytoprotection against phototoxicity in human HaCaT cells assessed as increase in cell viability at 3.9 to 31.3 uM preincubated for 60 mins followed by 10 J/cm2 UVA irradiation and measured after 24 hrs by neutral red uptake assay; format: functional, cell-based
# [2] = Stability of the compound in pH 3 solution at 10^-4 M after 24 hrs by HPLC analysis; format: physicochemical; settings: read-out: Stability
# [3] = Phototoxicity in human HaCaT cells assessed as cell viability at 7.8 uM preincubated for 60 mins followed by 7.5 J/cm2 UVA irradiation and measured after 24 hrs by neutral red uptake assay relative to control; format: cell-based; settings: read-out: Activity
# [4] = system: HaCaT; assay: Cytotoxicity in human HaCaT cells assessed as reduction in cell viability at 50 uM after 24 hrs by resazurin dye-based fluorescence assay relative to control
# [5] = system: NHDF; assay: Cytoprotection against phototoxicity in human NHDF cells assessed as increase in cell viability at 3.9 uM preincubated for 60 mins followed by 7.5 J/cm2 UVA irradiation and measured after 24 hrs by neutral red uptake assay; format: functional, cell-based
# [6] = system: Caenorhabditis elegans; assay: Protection against juglone-induced oxidative stress in Caenorhabditis elegans BA17 (fem-1) at 100 uM preincubated for 3 days followed by juglone addition measured every hour for 12 ro 14 hrs by inverted microscopic analysis; format: functional, organism-based
# [7] = system: Triticum aestivum; assay: Anti-senescent activity in leaf of Triticum aestivum cv. Hereward seedlings by measuring chlorophyll retention at 10^-4 mol/L after 4 days relative to control; format: functional
# [8] = Cytotoxicity in human HaCaT cells assessed as cell viability at 125 uM after 24 hrs by neutral red uptake assay relative to control; format: cell-based; settings: read-out: Activity
# [9] = Cytotoxicity in human NHDF cells assessed as cell viability at 3.9 uM after 24 hrs by neutral red uptake assay relative to control; format: cell-based; settings: read-out: Activity
# [10] = Cytotoxicity in human HaCaT cells assessed as cell viability at 31.3 uM after 24 hrs by neutral red uptake assay relative to control; format: cell-based; settings: read-out: Activity
# [11] = Stability of the compound in pH 5 solution at 10^-4 M after 1 hr by HPLC analysis; format: physicochemical; settings: read-out: Stability
# [12] = Phototoxicity in human HaCaT cells assessed as cell viability at 31.3 uM preincubated for 60 mins followed by 7.5 J/cm2 UVA irradiation and measured after 24 hrs by neutral red uptake assay relative to control; format: cell-based; settings: read-out: Activity
# [13] = system: NHDF; assay: Cytoprotection against phototoxicity in human NHDF cells assessed as increase in cell viability at 3.9 to 31.3 uM preincubated for 60 mins followed by 7.5 J/cm2 UVA irradiation and measured after 24 hrs by neutral red uptake assay; format: functional, cell-based
structure (smiles),measurement,setting,value
c1csc(CNc2ncnc3c2ncn3C2CCCO2)c1 (stereo not drawn),Activity,[1],Active
same,"remaining at 24 h, 100 µM",[2],0.8%
same,"viability at 24 h, 7.8 µM",[3],124%
same,Activity,[4],< 10%
same,Activity,[5],Active
same,Activity,[6],Active
same,Activity,[7],102%
same,"viability at 24 h, 125 µM",[8],103%
same,"viability at 24 h, 3.9 µM",[9],100%
same,"viability at 24 h, 31.3 µM",[10],102%
same,"remaining at 1 h, 100 µM",[11],100%
same,"viability at 24 h, 31.3 µM",[12],128%
same,Activity,[13],Active
